The test system of test [1] is Mycobacterium tuberculosis. As to the kind of experiment: Autofluorescence-based susceptibility testing of positive sputum samples. Type of test: cell-based.
The test system of another test is Pseudomonas aeruginosa. The following applies: concentration added to sensitive and resistant strain wells; imaged at 0th and 4th hour; cited from earlier work.

For `NC[C@H]1O[C@H](O[C@H]2[C@H](O)[C@@H](O[C@H]3O[C@H](CO)[C@@H](O)[C@H](N)[C@H]3O)[C@H](N)C[C@@H]2N)[C@H](O)[C@@H](O)[C@@H]1O` [kanamycin], the MIC (in general, the lowest concentration found to suppress growth) in test [1] is > 3 µg/mL.
In the case of `C[C@@H](O)[C@H]1C(=O)N2C(C(=O)O)=C(S[C@@H]3CN[C@H](C(=O)N(C)C)C3)[C@H](C)[C@H]12` [meropenem], the “Minimum Inhibitory Concentration (MIC) Value” in the test with Pseudomonas aeruginosa is 4 µg/mL.
